One assay concerns HEK293. Description: Cellular IC50 HEK293. Format: cell-based. The text has this: (§1) XLfit (idbs) was used to determine the IC50-values in inhibition experiments. The following formula was chosen to fit the data points (Langmuir Binding Isotherm): fit=((A+(B*x))+4(C−B)*(1−exp((−1*D)*x)))/D)), res=(y−fit)
The target of another assay is TNKS2 (Homo sapiens (Human), UniProt Q9H2K2). Description: Biochemical IC50 TNKS2.
From the text: as §1

[1] abbreviates: Homo sapiens, HEK293, read-out: Cellular IC50 HEK293.
[2] abbreviates: read-out: Biochemical IC50 TNKS2.
[3] abbreviates: Homo sapiens, HEK293, HEK293; read-out: Cellular IC50 HEK293.
The mark [4] stands for this setting: Homo sapiens, HEK293; read-out: Cellular IC50 HEK293.

Where “and” joins values, the source holds several entries; their conditions need not be identical. Identical values can stand only once. Like-named read-outs stand apart in the source and are kept apart here.

Sequence of TNKS2 (Q9H2K2 whole entry): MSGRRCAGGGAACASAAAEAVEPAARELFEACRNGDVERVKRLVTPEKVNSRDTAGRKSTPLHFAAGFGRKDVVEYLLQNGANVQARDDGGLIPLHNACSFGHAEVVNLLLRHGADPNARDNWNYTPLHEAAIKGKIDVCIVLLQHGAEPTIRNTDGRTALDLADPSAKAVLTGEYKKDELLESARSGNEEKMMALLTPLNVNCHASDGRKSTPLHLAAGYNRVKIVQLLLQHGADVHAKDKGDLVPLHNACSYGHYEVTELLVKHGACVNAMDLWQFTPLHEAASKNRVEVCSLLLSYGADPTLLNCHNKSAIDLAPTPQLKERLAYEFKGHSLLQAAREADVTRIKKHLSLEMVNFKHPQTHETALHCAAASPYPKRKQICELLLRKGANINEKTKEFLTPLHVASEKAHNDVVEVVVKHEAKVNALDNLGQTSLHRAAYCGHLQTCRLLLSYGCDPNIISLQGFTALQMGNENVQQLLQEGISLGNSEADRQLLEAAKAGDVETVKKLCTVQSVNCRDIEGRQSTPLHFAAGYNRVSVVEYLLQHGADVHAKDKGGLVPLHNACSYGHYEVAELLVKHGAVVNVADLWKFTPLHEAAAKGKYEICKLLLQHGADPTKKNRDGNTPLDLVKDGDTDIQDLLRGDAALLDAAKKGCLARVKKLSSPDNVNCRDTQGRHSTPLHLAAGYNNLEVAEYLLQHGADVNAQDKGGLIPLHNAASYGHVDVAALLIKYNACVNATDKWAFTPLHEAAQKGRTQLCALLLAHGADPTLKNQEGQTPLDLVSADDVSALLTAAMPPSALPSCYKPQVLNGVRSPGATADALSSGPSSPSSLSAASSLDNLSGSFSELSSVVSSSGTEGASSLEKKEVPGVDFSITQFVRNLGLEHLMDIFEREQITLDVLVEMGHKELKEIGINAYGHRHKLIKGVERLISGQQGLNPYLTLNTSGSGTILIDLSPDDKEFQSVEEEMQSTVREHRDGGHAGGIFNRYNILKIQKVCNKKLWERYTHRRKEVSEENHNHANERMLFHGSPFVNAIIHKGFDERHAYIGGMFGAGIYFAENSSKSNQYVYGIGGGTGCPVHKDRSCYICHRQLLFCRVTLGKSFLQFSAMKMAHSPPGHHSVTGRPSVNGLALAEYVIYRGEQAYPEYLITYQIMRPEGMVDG

A word on the IC50: it is the concentration needed to halve the response being measured. As to `CCOc1ccc(-c2nnc([C@H]3C[C@H](NC(=O)c4ccnc5cccnc45)C3)n2-c2cccnc2)nc1` [Example 162, N-((1r,3r)-3-(5-(5-ethoxypyridin-2-yl)-4-(pyridin-3-yl)-4H-1,2,4-triazol-3-yl)cyclobutyl)-1,5-naphthyridine-4-carboxamide], the IC50 with HEK293 (setting [1]) was found to be 16 nM; on TNKS2 (setting [2]), 4.5 nM.

Take `O=C(N[C@H]1C[C@H](c2nnc(-c3ccc(OC(F)F)cn3)n2-c2ccccc2F)C1)c1cccc2nccnc12` [Example 185, N-((1S,3r)-3-(5-(5-(difluoromethoxy)pyridin-2-yl)-4-(2-fluorophenyl)-4H-1,2,4-triazol-3-yl)cyclobutyl)quinoxaline-5-carboxamide]: the results for the IC50 in the assay on HEK293 (setting [1]) and on TNKS2 (setting [2]) were 1.2 nM and 1.9 nM, respectively.

On to `CCOc1ccc(-c2nnc(C34CC(NC(=O)c5ccnc6cccnc56)(C3)C4)n2-c2ccccc2)nc1` [Example 64, N-(3-(5-(5-ethoxypyridin-2-yl)-4-phenyl-4H-1,2,4-triazol-3-yl)bicyclo[1.1.1]pentan-1-yl)-1,5-naphthyridine-4-carboxamide], for which the IC50 in the assay on HEK293 (setting [3]) was 3 nM; at TNKS2 (setting [2]), 1.4 nM.

Regarding `CCOc1ccc(-c2nnc([C@H]3C[C@H](NC(=O)c4ccccc4)C3)n2-c2ccccc2)nc1` [Example 72, N-((1r,3r)-3-(5-(5-ethoxypyridin-2-yl)-4-phenyl-4H-1,2,4-triazol-3-yl)cyclobutyl)benzamide], the IC50 in the assay with HEK293 (setting [3]) is 30 nM; at TNKS2 (setting [2]) it was 14 nM.

As for `N#Cc1cccc(C(=O)N[C@H]2C[C@H](c3nnc(-c4ccncn4)n3-c3ccccc3Cl)C2)c1` [Example 132, N-((1R,3r)-3-(4-(2-chlorophenyl)-5-(pyrimidin-4-yl)-4H-1,2,4-triazol-3-yl)cyclobutyl)-3-cyanobenzamide], the figures for the IC50 with HEK293 (setting [3]) and on TNKS2 (setting [2]) were 39 nM and 6.6 nM, respectively.

`CCOc1ccc(-c2nnc([C@H]3C[C@H](NC(=O)c4ccnc5cccnc45)C3)n2-c2ccccc2Cl)nc1` [Example 135, N-((1S,3r)-3-(4-(2-chlorophenyl)-5-(5-ethoxypyridin-2-yl)-4H-1,2,4-triazol-3-yl)cyclobutyl)-1,5-naphthyridine-4-carboxamide]: the IC50 turned out to be 0.33 nM in the assay with HEK293 (setting [3]) and 1.9 nM at TNKS2 (setting [2]).

In the case of `CCOc1ccc(-c2nnc([C@H]3C[C@H](NC(=O)c4ccc(F)cc4)C3)n2-c2ccccc2F)nc1` [Example 56, N-((1S,3r)-3-(5-(5-ethoxypyridin-2-yl)-4-(2-fluorophenyl)-4H-1,2,4-triazol-3-yl)cyclobutyl)-4-fluorobenzamide], the IC50 at TNKS2 (setting [2]) was 10 nM and 2 nM.

With `O=C(N[C@H]1C[C@H](c2nnc(-c3nccs3)n2-c2ccccn2)C1)c1ccnc2cccnc12` [Example 37, N-((1r,3r)-3-(4-(pyridin-2-yl)-5-(thiazol-2-yl)-4H-1,2,4-triazol-3-yl)cyclobutyl)-1,5-naphthyridine-4-carboxamide], the IC50 was 88 nM in the assay with HEK293 (setting [3]) and 25 nM on TNKS2 (setting [2]).

For the compound `CCOc1ccc(-c2nnc([C@H]3C[C@H](NC(=O)c4ccc(C(C)O)cn4)C3)n2-c2ccccc2F)nc1` (mixture of isomers) [Example 100, rac-N-((1R,3r)-3-(5-(5-ethoxypyridin-2-yl)-4-(2-fluorophenyl)-4H-1,2,4-triazol-3-yl)cyclobutyl)-5-(1-hydroxyethyl)picolinamide], the IC50 worked out at 48 nM in the assay with HEK293 (setting [3]) and 8.2 nM against TNKS2.

On to `O=C(N[C@H]1C[C@H](c2nnc(-c3ccccn3)n2-c2ccccc2F)C1)c1cccc2nccnc12` [Example 193, N-((1S,3r)-3-(4-(2-fluorophenyl)-5-(pyridin-2-yl)-4H-1,2,4-triazol-3-yl)cyclobutyl)quinoxaline-5-carboxamide], for which the IC50 was 0.286 nM in the assay with HEK293 (setting [1]) and 1.6 nM at TNKS2 (setting [2]).

In the case of `O=C(N[C@H]1C[C@H](c2nnc(-c3ccccc3)n2-c2ccccc2F)C1)c1ccnc2cccnc12` [Example 176, N-((1S,3r)-3-(4-(2-fluorophenyl)-5-phenyl-4H-1,2,4-triazol-3-yl)cyclobutyl)-1,5-naphthyridine-4-carboxamide], the values for the IC50 with HEK293 (setting [3]) and on TNKS2 (setting [2]) were 28 nM and 3.6 nM, respectively.

Turning to `CCOc1ccc(-c2nnc([C@H]3C[C@H](NC(=O)c4ccc5ncccc5n4)C3)n2-c2ccncc2)nc1` [Example 169, N-((1r,3r)-3-(5-(5-ethoxypyridin-2-yl)-4-(pyridin-4-yl)-4H-1,2,4-triazol-3-yl)cyclobutyl)-1,5-naphthyridine-2-carboxamide], the IC50 in the assay with HEK293 (setting [3]) worked out at 58 nM; at TNKS2 (setting [2]), 28 nM.

As for `Cc1cccc(-c2nnc([C@H]3C[C@H](NC(=O)c4cc(F)cc5nccnc45)C3)n2-c2ccccc2F)n1` [Example 202, 7-fluoro-N-((1S,3r)-3-(4-(2-fluorophenyl)-5-(6-methylpyridin-2-yl)-4H-1,2,4-triazol-3-yl)cyclobutyl)quinoxaline-5-carboxamide], the half-maximal inhibitory concentration (IC50) came to 0.169 nM in the assay with HEK293 (setting [1]) and 1.6 nM at TNKS2 (setting [2]).

Take `CCOc1ccc(-c2nnc([C@H]3C[C@H](NC(=O)c4ccc(F)cc4)C3)n2-c2ccccc2Cl)nc1` [Example 137, N-((1S,3r)-3-(4-(2-chlorophenyl)-5-(5-ethoxypyridin-2-yl)-4H-1,2,4-triazol-3-yl)cyclobutyl)-4-fluorobenzamide]: the IC50 with HEK293 (setting [3]) stood at 10 nM; at TNKS2 (setting [2]), 4.9 nM.

As for `O=C(N[C@H]1C[C@H](c2nnc(-c3ccncn3)n2-c2ccccc2Cl)C1)c1ccc(F)cn1` [Example 17, N-((1S,3r)-3-(4-(2-chlorophenyl)-5-(pyrimidin-4-yl)-4H-1,2,4-triazol-3-yl)cyclobutyl)-5-fluoropicolinamide], the IC50 was determined as 2.4 nM in the assay with HEK293 (setting [3]) and 2.7 nM on TNKS2 (setting [2]).

On to `CCOc1ccc(-c2nnc([C@H]3C[C@H](NC(=O)c4cccc5cccnc45)C3)n2-c2cccc(Cl)c2)nc1` [Example 139, N-((1r,3r)-3-(4-(3-chlorophenyl)-5-(5-ethoxypyridin-2-yl)-4H-1,2,4-triazol-3-yl)cyclobutyl)quinoline-8-carboxamide], for which the figures for the IC50 with HEK293 (setting [3]) and at TNKS2 (setting [2]) were 4 nM and 8.7 nM, respectively.

Consider `O=C(N[C@H]1C[C@H](c2nnc(-c3ccncn3)n2-c2ccccc2Cl)C1)c1ncccc1F` [Example 18, N-((1S,3r)-3-(4-(2-chlorophenyl)-5-(pyrimidin-4-yl)-4H-1,2,4-triazol-3-yl)cyclobutyl)-3-fluoropicolinamide], for which the results for the IC50 in the assay with HEK293 (setting [3]) and at TNKS2 (setting [2]) were 57 nM and 37 nM, respectively.

For the compound `CCOc1ccc(-c2nnc([C@H]3C[C@H](NC(=O)c4cc(C)ccn4)C3)n2-c2ccccc2F)nc1` [Example 103, N-((1S,3r)-3-(5-(5-ethoxypyridin-2-yl)-4-(2-fluorophenyl)-4H-1,2,4-triazol-3-yl)cyclobutyl)-4-methylpicolinamide], the IC50 with HEK293 (setting [3]) amounted to 25 nM; on TNKS2 (setting [2]), 4.5 nM.

Take `O=C(N[C@H]1C[C@H](c2nnc(-c3ccc(OC(F)F)cn3)n2-c2ccccc2F)C1)c1ccc2cnccc2n1` [Example 184, N-((1S,3r)-3-(5-(5-(difluoromethoxy)pyridin-2-yl)-4-(2-fluorophenyl)-4H-1,2,4-triazol-3-yl)cyclobutyl)-1,6-naphthyridine-2-carboxamide]: the figures for the half-maximal inhibitory concentration (IC50) in the assay on HEK293 (setting [3]) and at TNKS2 (setting [2]) were 10 nM and 3.4 nM, respectively.

For `CCOc1ccc(-c2nnc([C@H]3C[C@H](NC(=O)c4ccccn4)C3)n2-c2ccccc2)nc1` [Example 68, N-((1r,3r)-3-(5-(5-ethoxypyridin-2-yl)-4-phenyl-4H-1,2,4-triazol-3-yl)cyclobutyl)picolinamide], the IC50 in the assay on HEK293 (setting [1]) turned out to be 65 nM; at TNKS2 (setting [2]), 5.2 nM.

Consider `O=C(NC12CC(c3nnc(-c4ccncn4)n3-c3ccccc3Cl)(C1)C2)c1ccccn1` [Example 22, N-(3-(4-(2-chlorophenyl)-5-(pyrimidin-4-yl)-4H-1,2,4-triazol-3-yl)bicyclo[1.1.1]pentan-1-yl)picolinamide], for which the results for the IC50 in the assay with HEK293 (setting [3]) and at TNKS2 (setting [2]) were 25 nM and 3.8 nM, respectively.

Regarding `O=C(N[C@H]1C[C@H](c2nnc(-c3nccs3)n2-c2ccccc2F)C1)c1ccnc2cc(F)cnc12` [Example 29, 7-fluoro-N-((1S,3r)-3-(4-(2-fluorophenyl)-5-(thiazol-2-yl)-4H-1,2,4-triazol-3-yl)cyclobutyl)-1,5-naphthyridine-4-carboxamide], the IC50 with HEK293 (setting [3]) came to 1.3 nM.

With `[2H]C([2H])([2H])C([2H])([2H])Oc1ccc(-c2nnc([C@H]3C[C@H](NC(=O)c4ccccn4)C3)n2-c2ccccc2F)nc1` [Example 93, N-((1S,3r)-3-(5-(5-(ethoxy-d5)pyridin-2-yl)-4-(2-fluorophenyl)-4H-1,2,4-triazol-3-yl)cyclobutyl)picolinamide], the IC50 with HEK293 (setting [4]) stood at 9.5 nM.

Take `CCOc1ccc(-c2nnc([C@H]3C[C@H](NC(=O)c4ccccn4)C3)n2-c2ccccc2F)nc1` [Example 54, N-((1S,3r)-3-(5-(5-ethoxypyridin-2-yl)-4-(2-fluorophenyl)-4H-1,2,4-triazol-3-yl)cyclobutyl)picolinamide]: the IC50 with HEK293 (setting [4]) was 17 nM.

In the case of `O=C(N[C@H]1C[C@H](c2nnc(-c3ccncn3)n2-c2ccccc2Cl)C1)c1c(F)cccc1F` [Example 16, N-((1S,3r)-3-(4-(2-chlorophenyl)-5-(pyrimidin-4-yl)-4H-1,2,4-triazol-3-yl)cyclobutyl)-2,6-difluorobenzamide], in the assay on HEK293 (setting [3]), the IC50 worked out at 7680 nM.

Turning to `CCOc1ccc(-c2nnc([C@H]3C[C@H](NC(=O)c4cccc5nccnc45)C3)n2-c2ccccc2F)nc1` [Example 154, N-((1S,3r)-3-(5-(5-ethoxypyridin-2-yl)-4-(2-fluorophenyl)-4H-1,2,4-triazol-3-yl)cyclobutyl)quinoxaline-5-carboxamide], in the assay on HEK293 (setting [1]), the IC50 is 0.53 nM.

For the compound `CCOc1ccc(-c2nnc([C@H]3C[C@H](NC(=O)c4cccc5cccnc45)C3)n2-c2ccccc2)nc1` [Example 71, N-((1r,3r)-3-(5-(5-ethoxypyridin-2-yl)-4-phenyl-4H-1,2,4-triazol-3-yl)cyclobutyl)quinoline-8-carboxamide], the IC50 in the assay with HEK293 (setting [3]) was determined as 1.8 nM.

The values above are taken from US11926614B2, “1,2,4-triazole derivatives as tankyrase inhibitors” (priority 2018, dated 2024).
